Laboratory results from publication PMC8765435, “In Vitro Antimalarial Activity of Inhibitors of the Human GTPase Rac1” (Antimicrobial Agents and Chemotherapy, 2022).

Assays:
[1] = system: P. falciparum asexual parasites, chloroquine-sensitive D10 strain; assay: Drug susceptibility assay (pLDH), asexual parasites, D10 strain; type: cell-based, Plasmodium falciparum; conditions: Plasmodium falciparum, D10, chloroquine-sensitive D10 strain; read-out: IC50, D10 strain
Description: (§1) Chloroquine (CQ)-sensitive (D10, wild-type 3D7, or transgenic 3D7elo1-pfs16-CBG99) and CQ-resistant (W2) strains of P. falciparum were cultured as described previously ([58]), with slight modifications, as detailed in the supplemental material.
(§2) Asexual parasite growth was determined spectrophotometrically (optical density at 650 nm [OD650]) by measuring the activity of parasite lactate dehydrogenase (pLDH), according to a modified version of the method of Makler et al. ([59]). Gametocyte viability was measured by a luminescence method described previously ([60]). Details for the two methods are reported in the supplemental material. From either the OD or ALU (arbitrary luminescence units), the percentages of viability were calculated according to the formula 100 × (treated sample signal − blank signal)/(untreated control signal − blank signal). The blank for the pLDH assay was uninfected RBCs at the same hematocrit as that of parasitized RBCs, and the blank for the luminescence assay was parasites treated with a high dose of methylene blue. […]
The CQ-sensitive (D10) and the CQ-resistant (W2) strains were maintained at 5% hematocrit […]
supplemented with 1% AlbuMaxII (lipid-rich bovine serum albumin) (Invitrogen), 0.01% hypoxantine (Sigma), 20mM Hepes (EuroClone), 2 mM glutamine (EuroClone). […]
In vitro P. falciparum drug susceptibility assay […]
plate were transferred to a plate containing 100µl of Malstat reagent (0.11% [vol/vol] Triton- […]
dinucleotide [APAD] [Sigma-Aldrich], adjusted to pH 9 with 1 M HCl) and 25 µl of PES/NBT […]
pLDHassay. The plate was read at a wavelength of 650 nm using a microplate reader, Synergy4 […]
Uninfected RBC at the same HCT than parasites were used as blank. […]

3D7 immature gametocytes = assay: Gametocyte viability luminescence assay, immature gametocytes; type: cell-based, Plasmodium falciparum; conditions: Plasmodium falciparum, 3D7, stage II-III gametocytes, 72 h, read-out: Mean IC50 ± SD, 3D7 immature gametocytes
Description: as §1, §2
(§3) strain (wild type or transgenic 3D7elo1-pfs16-CBG99 strain) was cultured in similar conditions, except for 10% naturally clotted Human O+ serum instead of AlbuMaxII and human type O-positive instead of A-positive RBCs. […]
(§4) in a standard gas mixture consisting of 1% O2, 5% CO2, 94% N2. Immature (stage II-III) and mature (stage V) gametocytes were obtained as described1. Briefly, cultures were diluted to 0.5% parasitemia at 5% HCT, and the medium was changed daily until parasites were stressed by nutrient deprivation. N-acetylglucosamine (NAG) (Sigma-Aldrich) 50 mM was then added to clear residual asexual parasites: Stage II and III gametocytes were obtained 4 days after NAG addition to the culture, while stage IV and V gametocytes were used 11 to 13 days from NAG addition. Gametocyte stages were routinely checked on Giemsa-stained smears. […]
(§5) Drug treated gametocyte cultures were transferred to 96-well black microplates and D-luciferin (1 mM in citrate buffer 0.1 M, pH 5.5) was added at a 1:1 volume ratio. Luminescence measurements were performed after 10 min with 500 ms integration time. Gametocytes treated

3D7 mature gametocytes = assay: Gametocyte viability luminescence assay, mature gametocytes; type: cell-based, Plasmodium falciparum; conditions: Plasmodium falciparum, 3D7; stage V gametocytes, 72 h, luminescence; read-out: Mean IC50 ± SD, 3D7 mature gametocytes
Description: as §1, §2, §3, §4, §5

[2] = system: P. falciparum invasion of red blood cells; assay: Parasite invasion assay; type: cell-based, Plasmodium falciparum; conditions: 2.5 μM
Description: Invasion assays were performed as previously described ([17]). Invasion rates were calculated by subtracting the number of schizonts at the end of the assay (6 h postinvasion [hpi]) from the number of schizonts in the time zero (T0) sample, obtaining the number of merozoite-releasing schizonts. The number of new infections was normalized to the number of merozoite-releasing schizonts to obtain the parasitized erythrocyte multiplication rate (PEMR). This value was normalized to the control sample, obtaining the invasion rate value. The results are the means from three independent biological replicates, each performed in triplicate.

[3] = system: human mammary epithelial cells; design: method as in PMID 25389450, PMID 25594952; conditions: at concentrations lower than 5 μM; cited from earlier work
Rac1 = Rac1 (Homo sapiens, UniProt P63000); assay: Immunofluorescence assay with anti-Rac1/GTP on parasitophorous vacuole; type: cell-based; design: endogenous in cells; host or cells: erythrocytes from whole blood of 7 donors; conditions: 1.4 μM, 20 h
Description: We thus decided to investigate the Rac1 activation state in infected erythrocytes treated with EHop-016 and in the untreated control. To do this, we applied a methodology that allows us to specifically measure Rac1 activation levels on the parasitophorous vacuole. Freshly invaded erythrocytes were thus exposed to 1.4 μM EHop-016 treatment for 20 h and then smeared and analyzed by an immunofluorescence assay (IFA) with an antibody that specifically recognizes Rac1 in its active form (anti-Rac1/GTP). The resulting fluorescence signal was measured both in the EHop-016-treated sample and in the untreated control.
Cytotoxicity was evaluated on Human Microvascular Endothelial Cells (HMEC-1) maintained in MCDB-131 medium supplemented with 10% foetal calf serum (Euroclone), 20mM HEPES and 2 mM L-glutamine. […]
Immuno-fluorescence assay
Synchronous mature schizonts were purified by 60% Percoll gradient and allowed to invade fresh human RBCs for two hours. […] Negative controls without primary antibodies have been performed, resulting in complete absence of fluorescence s ignals. Anti-Rac1/GTP fluorescence signal was measured by using the software ImageJ (the parasitophorous vacuole area was delimited based on the anti-Exp1 signal). At least 40 cells were analyzed in each sample.

## CCn1c2ccccc2c2cc(Nc3ccnc(NCCCN4CCOCC4)n3)ccc21 [EHop-016]
[1]
  IC50: 139 ± 16 nM
3D7 immature gametocytes
  IC50: 740 ± 200 nM
3D7 mature gametocytes
  IC50: 4650 ± 520 nM
[2]
  RBC invasion efficiency (invasion rate vs untreated control): did not reduce the RBC invasion efficiency
[3]
  viability of human mammary epithelial cells: does not affect the viability
Rac1
  anti-Rac1/GTP fluorescence intensity of parasitophorous vacuoles vs untreated control: significantly lower
